How the values were obtained:
Rat A1 AR = target: T1, Rat A1 AR (Rattus norvegicus, UniProt P25099); experiment: Radioligand binding assay 1, rat A1 adenosine receptor; details: rat cortex, [3H]CCPA
T1 construct: Rat brain preparations were used for A1- and A2A adenosine receptor (AR); from tissue; host or cells: rat cortex
T1 sequence (P25099 1-326): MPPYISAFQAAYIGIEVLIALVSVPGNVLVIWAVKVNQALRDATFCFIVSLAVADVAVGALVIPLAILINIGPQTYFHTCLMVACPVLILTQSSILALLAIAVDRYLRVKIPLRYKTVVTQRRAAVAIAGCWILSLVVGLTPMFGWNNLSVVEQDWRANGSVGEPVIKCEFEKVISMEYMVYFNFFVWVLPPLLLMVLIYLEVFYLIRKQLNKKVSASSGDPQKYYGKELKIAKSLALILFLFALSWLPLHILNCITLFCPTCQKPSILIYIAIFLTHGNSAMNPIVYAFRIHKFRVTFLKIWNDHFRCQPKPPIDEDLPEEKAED
Description: (§1) Rat brain preparations were used for A1- and A2A adenosine receptor (AR) and human recombinant cell samples for A1-, A2A- and A3 adenosine receptor radioligand binding studies. Affinity and selectivity was tested in displacement experiments with following radioligands: [^3H]CCPA for A1-adenosine receptors, [^3H]MSX-2 for A2A-receptors and [^3H]PSB-11 for A3-receptors. Results of these experiments are depicted in table 2b (human data) and table 2a (rat data). Radioligand binding test systems are e.g. generally described by Muller et al., Curr. Pharm. Des., 1996, 2, 501 and Weyler et al., ChemMedChem 2006, 1, 891 and references cited therein) These documents are incorporated herein by reference.

Rat A2A AR = target: T2, Rat A2A AR (Rattus norvegicus, UniProt P30543); experiment: Radioligand binding assay 1, rat A2A adenosine receptor; details: rat striatum, [3H]MSX-2
T2 construct: A2A adenosine receptors from rat striatum; from tissue; host or cells: rat striatum
Description: as §1

T2 sequence (P30543 whole entry): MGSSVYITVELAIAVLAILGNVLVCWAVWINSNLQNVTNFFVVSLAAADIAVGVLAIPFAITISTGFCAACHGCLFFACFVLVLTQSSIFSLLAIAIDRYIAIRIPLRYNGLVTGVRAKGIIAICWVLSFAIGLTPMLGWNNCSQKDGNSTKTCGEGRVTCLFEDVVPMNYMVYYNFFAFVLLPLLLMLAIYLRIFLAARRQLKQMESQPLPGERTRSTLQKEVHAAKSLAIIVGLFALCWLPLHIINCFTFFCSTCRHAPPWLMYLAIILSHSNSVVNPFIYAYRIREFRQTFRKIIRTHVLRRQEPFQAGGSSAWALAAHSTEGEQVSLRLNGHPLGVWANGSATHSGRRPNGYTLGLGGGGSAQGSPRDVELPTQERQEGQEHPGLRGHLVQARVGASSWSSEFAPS

SMILES	Ki (Rat A1 AR) [nM]	Ki (Rat A2A AR) [nM]
C#CCn1c(=O)c2c(nc(C#Cc3cccc(OC)c3)n2C)n(CC2CO2)c1=O (stereo not shown)	> 1000	38.2 ± 12
C#CCn1c(=O)c2c(nc(C#Cc3ccc(OC)c(F)c3)n2C)n(CC)c1=O	≥ 1000	52.6 ± 19.5
C#CCn1c(=O)[nH]c2nc(C#Cc3cccc(OC)c3)n(C)c2c1=O	> 1000	135 ± 28
C#CCn1c(=O)c2c(nc(C#Cc3cccc(OCC=C)c3)n2C)n(C)c1=O	≥ 10000	152 ± 63
C#CCn1c(=O)c2c(nc(C#Cc3ccc(OC)c(OC)c3)n2C)n(Cc2ccsc2)c1=O	> 1000	28 ± 4.2
C#CCn1c(=O)c2c(nc(C#Cc3ccc(OC)c(OC)c3)n2C)n(CCCCF)c1=O	209 ± 42	11.7 ± 1.7
C#CCn1c(=O)c2c(nc(C#Cc3cccc(OC)c3)n2C)n(CC#C)c1=O	> 10000	80.7 ± 21.1
C#CCn1c(=O)c2c(nc(C#Cc3ccc(OC)c(OC)c3)n2C)n(C[C@H](C)CO)c1=O	146 ± 46	1.83 ± 0.38
C#CCn1c(=O)c2c(nc(C#Cc3ccc(OC)c(OC)c3)n2C)n(CCNC)c1=O	≥ 1000	134 ± 16
C#CCn1c(=O)c2c(nc(C#Cc3ccc(OC)c(OC)c3)n2C)n(CCOCC)c1=O	> 1000	35.6 ± 14.1
C#CCn1c(=O)c2c(nc(C#Cc3cc(OC)cc(OC)c3)n2C)n(C)c1=O	> 10000	190 ± 50
C#CCn1c(=O)c2c(nc(C#Cc3ccc(OC)c(OC)c3)n2C)n(CC(F)(F)F)c1=O	≥ 1000	12.7 ± 2.8
C#CCn1c(=O)c2c(nc(C#Cc3cccc(OC)c3)n2C)n(C)c1=O [drawing 456]	> 10000	30.9 ± 8
C#CCn1c(=O)c2c(nc(C#Cc3ccc(OC)c(OC)c3)n2C)n(CC(=O)CC)c1=O	> 1000	91.7 ± 38.3
C#CCn1c(=O)c2c(nc(C#Cc3ccccc3OC)n2C)n(C)c1=O	> 10000	> 10000
C#CCn1c(=O)c2c(nc(C#Cc3ccc(OC)c(OC)c3)n2C)n(CC(=O)OCC)c1=O	≥ 1000	167 ± 82
C#CCn1c(=O)c2c(nc(C#Cc3ccc4c(c3)OCO4)n2C)n(CC)c1=O	> 1000	29.6 ± 6.1
C#CCn1c(=O)c2c(nc(C#Cc3cccc(Cl)c3)n2C)n(CC)c1=O	488 ± 253	141 ± 28
C#CCn1c(=O)c2c(nc(C#Cc3ccc(OC)c(OC)c3)n2C)n(CCCF)c1=O	≥ 1000	16.3 ± 2.8
C#CCn1c(=O)c2c(nc(C#Cc3ccc(OC)c(OC)c3)n2CC#C)n(CC)c1=O	> 1000	132 ± 60
C#CCn1c(=O)c2c(nc(C#Cc3ccc(OC)c(OC)c3)n2C)n(Cc2ccno2)c1=O	> 1000	17.9 ± 5.5
C#CCn1c(=O)c2c(nc(C#Cc3ccc(OC)cc3)n2C)n(CC)c1=O	> 1000	28.6 ± 13.3
C#CCn1c(=O)c2c(nc(C#Cc3ccoc3)n2C)n(CC)c1=O	> 1000	220 ± 21

Further lines, results first:

Ki (Rat A1 AR) [nM]	Ki (Rat A2A AR) [nM]	SMILES
≥ 10000	219 ± 52	C#CCn1c(=O)c2c(nc(C#Cc3cccc(OCCOC)c3)n2C)n(C)c1=O [drawing 471]
> 1000	18.5 ± 5	C#CCn1c(=O)c2c(nc(C#Cc3ccc(OC)c(OC)c3)n2C)n(CC(C)=O)c1=O [drawing 525]
> 1000	40 ± 0.6	C#CCn1c(=O)c2c(nc(C#Cc3ccc(OC)c(OC)c3)n2C)n(CC#N)c1=O [drawing 500]
> 10000	166 ± 34	C#CCn1c(=O)c2c(nc(C#Cc3ccc4c(c3)OCO4)n2C)n(C)c1=O [drawing 476]
≥ 1000	13.4 ± 6.5	C#CCn1c(=O)c2c(nc(C#Cc3ccc(OC)c(OC)c3)n2C)n(CCC)c1=O [drawing 515]
> 1000	103 ± 15	C#CCn1c(=O)c2c(nc(C#Cc3cccc(OC)c3)n2C)n(CCO)c1=O [drawing 491]
≥ 10000	117 ± 25	C#CCn1c(=O)c2c(nc(C#Cc3cccc(OCCO)c3)n2C)n(C)c1=O [drawing 469]
> 1000	5.16 ± 1.91	C#CCn1c(=O)c2c(nc(C#Cc3ccc(OC)c(OC)c3)n2C)n(Cc2ccoc2)c1=O [drawing 509]
1170 ± 731	140 ± 12	C#CCn1c(=O)c2c(nc(C#Cc3cccc(OC(C)=O)c3)n2C)n(C)c1=O [drawing 472]
> 1000	44 ± 6.2	C#CCn1c(=O)c2c(nc(C#Cc3ccc(OC)c(OC)c3)n2C)n(CCCOC)c1=O [drawing 506]
> 1000	22.9 ± 7.6	C#CCn1c(=O)c2c(nc(C#Cc3ccc(OC)c(OC)c3)n2C)n(CCCC#N)c1=O [drawing 508]
425 ± 99	173 ± 35	C#CCn1c(=O)c2c(nc(C#Cc3cccc(O)c3)n2C)n(C)c1=O [drawing 475]
> 3000	47.2 ± 7.3	C#CCn1c(=O)c2c(nc(C#Cc3ccc(OC)c(OC)c3)n2C)n(CC)c1=O [drawing 487]
> 1000	132 ± 96	C#CCn1c(=O)c2c(nc(C#Cc3ccc(Cl)c(Cl)c3)n2C)n(CC)c1=O [drawing 550]
≥ 1000	42.3 ± 5.7	C#CCn1c(=O)c2c(nc(C#Cc3ccc(OC)c(OC)c3)n2C)n(CC(O)CO)c1=O (stereo not shown) [drawing 493]
189 ± 33	13.3 ± 1.4	C#CCn1c(=O)c2c(nc(C#Cc3ccc(OC)c(OC)c3)n2C)n(CC(C)O)c1=O (stereo not shown) [drawing 502]
≥ 10000	151 ± 19	C#CCn1c(=O)c2c(nc(C#Cc3cccc(Br)c3)n2C)n(C)c1=O [drawing 462]
> 1000	45.9 ± 13.5	C#CCn1c(=O)c2c(nc(C#Cc3ccc(OC)c(OC)c3)n2C)n(CCOC)c1=O [drawing 498]
> 1000	45.5 ± 10.4	C#CCn1c(=O)c2c(nc(C#Cc3ccc(OC)c(OC)c3)n2C)n(CCO)c1=O [drawing 499]
> 1000	108 ± 31	C#CCn1c(=O)c2c(nc(C#Cc3ccsc3)n2C)n(CC)c1=O [drawing 510]
136 ± 19	37 ± 11	C#CCn1c(=O)c2c(nc(C#Cc3ccc(OC)c(OC)c3)n2C)n(CCCOP(=O)(O)O)c1=O [drawing 494]
64 ± 5.4	19.2 ± 1.4	C#CCn1c(=O)c2c(nc(C#Cc3ccc(OC)c(OC)c3)n2C)n(CCC2CO2)c1=O (stereo not shown) [drawing 505]
≥ 10000	90 ± 35.7	C#CCn1c(=O)c2c(nc(C#Cc3cccc(OC)c3)n2CC#C)n(C)c1=O [drawing 467]
> 1000	10.2 ± 4.2	C#CCn1c(=O)c2c(nc(C#Cc3ccc(OC)c(OC)c3)n2C)n(CC2CC2)c1=O [drawing 521]
> 10000	76.3 ± 17.1	C#CCn1c(=O)c2c(nc(C#Cc3cccc(C)c3)n2C)n(CC)c1=O [drawing 486]
76.8 ± 22.9	6.74 ± 1	C#CCn1c(=O)c2c(nc(C#Cc3ccc(OC)c(OC)c3)n2C)n(Cc2ccco2)c1=O [drawing 503]
> 1000	42.3 ± 5.7	C#CCn1c(=O)c2c(nc(C#Cc3ccc(OC)c(OC)c3)n2C)n(CC(O)CO)c1=O (stereo not shown) [drawing 537]
> 1000	66.4 ± 19	C#CCn1c(=O)c2c(nc(C#Cc3cccc(OCc4ccoc4)c3)n2C)n(C)c1=O [drawing 479]
810 ± 145	54 ± 5	C#CCn1c(=O)c2c(nc(C#Cc3ccc(OC)c(OC)c3)n2C)n(CCN(C)C)c1=O [drawing 489]
≥ 10000	211 ± 46	C#CCn1c(=O)c2c(nc(C#Cc3cccc(OCCCO)c3)n2C)n(C)c1=O [drawing 468]

Reference: patent US20080221134A1, “8-ALKYNYLXANTHINES AND DERIVATIVES” (priority 2006, published 2008)
